# Key:
# [1] = molecular target: T1, Human Calpain 2/NS1 (Homo sapiens, UniProt P17655); assay: Calpain inhibition continuous fluorescence (FRET) assay, Human Calpain 2/NS1; type: biochemical; conditions: read-out: Human Calpain 2/NS1 IC50
# T1 sequence (P17655 1-700): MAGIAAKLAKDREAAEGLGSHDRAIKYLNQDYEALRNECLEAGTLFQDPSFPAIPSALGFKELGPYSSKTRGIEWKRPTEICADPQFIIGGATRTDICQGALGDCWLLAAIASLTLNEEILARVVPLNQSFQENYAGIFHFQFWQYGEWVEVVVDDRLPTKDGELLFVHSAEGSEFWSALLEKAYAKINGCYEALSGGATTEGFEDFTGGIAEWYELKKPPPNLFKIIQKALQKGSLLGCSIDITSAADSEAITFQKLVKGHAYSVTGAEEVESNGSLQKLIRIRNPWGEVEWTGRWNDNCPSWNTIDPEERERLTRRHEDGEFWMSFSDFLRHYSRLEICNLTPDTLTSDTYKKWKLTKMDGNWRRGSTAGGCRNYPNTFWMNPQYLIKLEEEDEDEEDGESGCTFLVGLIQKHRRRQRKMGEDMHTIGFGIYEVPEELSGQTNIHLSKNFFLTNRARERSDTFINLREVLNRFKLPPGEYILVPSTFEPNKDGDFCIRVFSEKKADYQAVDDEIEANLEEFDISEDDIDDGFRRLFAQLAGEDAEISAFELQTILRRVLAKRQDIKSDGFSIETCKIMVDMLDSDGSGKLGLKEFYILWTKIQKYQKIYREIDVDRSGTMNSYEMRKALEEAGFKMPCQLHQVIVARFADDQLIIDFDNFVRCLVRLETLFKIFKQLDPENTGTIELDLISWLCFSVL
# T1 sequence (P04632 1-268 partner): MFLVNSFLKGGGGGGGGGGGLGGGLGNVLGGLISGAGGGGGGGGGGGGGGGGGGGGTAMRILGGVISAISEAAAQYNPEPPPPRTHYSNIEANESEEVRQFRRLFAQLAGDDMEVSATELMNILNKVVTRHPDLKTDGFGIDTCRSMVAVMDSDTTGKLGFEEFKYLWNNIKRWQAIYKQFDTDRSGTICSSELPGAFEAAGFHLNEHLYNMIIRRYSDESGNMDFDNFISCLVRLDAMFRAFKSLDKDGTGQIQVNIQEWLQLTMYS
# Method in brief: (§1)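 Continuous FRET read (ex 490/em 520 nm, 10 min) of calpain 1, 2 or 9 cleaving an internally quenched 5-FAM peptide, triggered by substrate with CaCl2 after enzyme–inhibitor incubation at ambient 25 °C, pH 7.5 Tris/NaCl/DTT buffer. IC50 from initial rates (1-5 min) via 4-parameter fit.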
# [2] = molecular target: T2, Human Calpain 1/NS1 (Homo sapiens, UniProt P07384); assay: Calpain inhibition continuous fluorescence (FRET) assay, Human Calpain 1/NS1; type: biochemical; conditions: read-out: Human Calpain 1/NS1 IC50
# T2 sequence (P07384 1-714): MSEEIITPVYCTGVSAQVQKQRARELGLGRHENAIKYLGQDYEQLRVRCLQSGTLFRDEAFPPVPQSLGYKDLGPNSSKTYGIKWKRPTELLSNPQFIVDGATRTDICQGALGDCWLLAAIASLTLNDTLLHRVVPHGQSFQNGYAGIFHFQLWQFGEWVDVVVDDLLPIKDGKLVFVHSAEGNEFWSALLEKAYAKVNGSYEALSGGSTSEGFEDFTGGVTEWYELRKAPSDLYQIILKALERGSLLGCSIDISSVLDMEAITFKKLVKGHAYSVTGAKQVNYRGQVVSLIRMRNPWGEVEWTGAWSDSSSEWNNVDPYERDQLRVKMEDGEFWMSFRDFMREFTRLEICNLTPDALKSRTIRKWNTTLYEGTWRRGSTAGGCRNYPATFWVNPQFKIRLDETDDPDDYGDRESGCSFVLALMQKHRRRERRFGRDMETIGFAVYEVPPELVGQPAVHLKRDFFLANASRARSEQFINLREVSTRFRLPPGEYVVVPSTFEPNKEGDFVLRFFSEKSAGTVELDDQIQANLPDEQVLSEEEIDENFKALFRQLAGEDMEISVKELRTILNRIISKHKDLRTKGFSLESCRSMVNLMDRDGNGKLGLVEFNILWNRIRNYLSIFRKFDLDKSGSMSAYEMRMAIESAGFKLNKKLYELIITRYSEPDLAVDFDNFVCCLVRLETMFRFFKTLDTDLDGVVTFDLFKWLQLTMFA
# T2 sequence (P04632 1-268 partner): T1 sequence (P04632 1-268 partner)
# Method in brief: as §1
# [3] = test system: Calpain activity in SH-SY5Y cells (SBDP-150); assay: SH-SY5Y Spectrin western blot assay (SBDP-150 breakdown product, A23187-induced); type: cell-based; conditions: Homo sapiens; SH-SY5Y cells, A23187-induced SBDP-150, western blot; read-out: SH-SY5Y Spectrin IC50
# [4] = test system: Calpain activity in SH-SY5Y cells; assay: SH-SY5Y + AMC fluorescence assay (Suc-LLVY-AMC substrate); type: cell-based; conditions: read-out: SH-SY5Y + AMC IC50
# [5] = molecular target: T3, Human Calpain 9/NS1 (Homo sapiens, UniProt O14815); assay: Calpain inhibition continuous fluorescence (FRET) assay, Human Calpain 9/NS1; type: biochemical; conditions: read-out: Human Calpain 9/NS1 IC50
# T3 sequence (O14815 1-690): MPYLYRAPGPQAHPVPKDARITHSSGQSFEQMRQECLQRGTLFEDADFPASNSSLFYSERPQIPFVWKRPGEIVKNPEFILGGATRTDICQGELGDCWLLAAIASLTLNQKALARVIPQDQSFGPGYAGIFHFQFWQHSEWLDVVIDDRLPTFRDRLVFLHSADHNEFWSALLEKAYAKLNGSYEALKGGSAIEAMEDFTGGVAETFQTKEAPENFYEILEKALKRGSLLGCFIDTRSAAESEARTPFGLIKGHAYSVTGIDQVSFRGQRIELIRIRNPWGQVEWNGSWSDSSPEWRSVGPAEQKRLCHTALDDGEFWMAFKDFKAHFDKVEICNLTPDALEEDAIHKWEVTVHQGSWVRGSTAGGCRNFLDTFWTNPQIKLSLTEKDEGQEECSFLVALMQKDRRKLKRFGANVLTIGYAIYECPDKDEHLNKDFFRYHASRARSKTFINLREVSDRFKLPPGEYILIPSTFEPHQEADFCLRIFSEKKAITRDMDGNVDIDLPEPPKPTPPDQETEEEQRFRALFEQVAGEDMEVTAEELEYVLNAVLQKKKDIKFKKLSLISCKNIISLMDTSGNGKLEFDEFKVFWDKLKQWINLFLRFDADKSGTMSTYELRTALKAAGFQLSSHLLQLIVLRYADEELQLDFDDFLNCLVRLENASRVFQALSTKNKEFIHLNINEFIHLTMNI
# T3 sequence (P04632 1-268 partner): T1 sequence (P04632 1-268 partner)
# Method in brief: as §1
IC50 [1],IC50 [2],IC50 [3],IC50 [4],IC50 [5],SMILES
< 3 µM,< 3 µM,> 25 µM,10 to 25 µM,< 3 µM,"Cc1ccc(-c2nn(C)cc2C(=O)NC(Cc2ccccc2)C(=O)C(N)=O)o1 (stereo not drawn) [Compound 498, N-(4-amino-3,4-dioxo-1-phenylbutan-2-yl)-1-methyl-3-(5-methylfuran-2-yl)-1H-pyrazole-4-carboxamide]"
< 3 µM,< 3 µM,10 to 25 µM,< 10 µM,< 3 µM,"Cc1cc(-c2nn(C)cc2C(=O)NC(Cc2ccccc2)C(=O)C(N)=O)c(C)s1 (stereo not drawn) [Compound 499, N-(4-amino-3,4-dioxo-1-phenylbutan-2-yl)-3-(2,5-dimethylthiophen-3-yl)-1-methyl-1H-pyrazole-4-carboxamide]"
< 3 µM,< 3 µM,10 to 25 µM,< 10 µM,< 3 µM,"Cn1cc(C(=O)NC(Cc2ccccc2)C(=O)C(N)=O)c(-c2ccco2)n1 (stereo not drawn) [Compound 500, N-(4-amino-3,4-dioxo-1-phenylbutan-2-yl)-3-(furan-2-yl)-1-methyl-1H-pyrazole-4-carboxamide]"
< 3 µM,< 3 µM,10 to 25 µM,< 10 µM,< 3 µM,"Cn1cc(C(=O)NC(Cc2ccccc2)C(=O)C(N)=O)c(-c2ccsc2Cl)n1 (stereo not drawn) [Compound 501, N-(4-amino-3,4-dioxo-1-phenylbutan-2-yl)-3-(2-chlorothiophen-3-yl)-1-methyl-1H-pyrazole-4-carboxamide]"
< 3 µM,< 3 µM,10 to 25 µM,< 10 µM,< 3 µM,"Cn1cc(C(=O)NC(Cc2ccccc2)C(=O)C(N)=O)c(-c2ccoc2)n1 (stereo not drawn) [Compound 502, N-(4-amino-3,4-dioxo-1-phenylbutan-2-yl)-3-(furan-3-yl)-1-methyl-1H-pyrazole-4-carboxamide]"
< 3 µM,< 3 µM,> 25 µM,> 25 µM,< 3 µM,"Cc1csc(-c2nn(C)cc2C(=O)NC(Cc2ccccc2)C(=O)C(N)=O)c1 (stereo not drawn) [Compound 504, N-(4-amino-3,4-dioxo-1-phenylbutan-2-yl)-1-methyl-3-(4-methylthiophen-2-yl)-1H-pyrazole-4-carboxamide]"
< 3 µM,< 3 µM,10 to 25 µM,< 10 µM,< 3 µM,"COc1ccc(F)c(-c2nn(C)cc2C(=O)NC(Cc2ccccc2)C(=O)C(N)=O)c1 (stereo not drawn) [Compound 507, N-(4-amino-3,4-dioxo-1-phenylbutan-2-yl)-3-(2-fluoro-5-methoxyphenyl)-1-methyl-1H-pyrazole-4-carboxamide]"
< 3 µM,< 3 µM,< 10 µM,< 10 µM,< 3 µM,"Cn1cc(C(=O)NC(Cc2ccccc2)C(=O)C(N)=O)c(-c2cccc(C(F)F)c2)n1 (stereo not drawn) [Compound 508, N-(4-amino-3,4-dioxo-1-phenylbutan-2-yl)-3-(3-(difluoromethyl)phenyl)-1-methyl-1H-pyrazole-4-carboxamide]"
< 3 µM,< 3 µM,10 to 25 µM,10 to 25 µM,< 3 µM,"COc1cccc(-c2nn(C)cc2C(=O)NC(Cc2ccccc2)C(=O)C(N)=O)c1F (stereo not drawn) [Compound 509, N-(4-amino-3,4-dioxo-1-phenylbutan-2-yl)-3-(2-fluoro-3-methoxyphenyl)-1-methyl-1H-pyrazole-4-carboxamide]"
< 3 µM,< 3 µM,10 to 25 µM,10 to 25 µM,< 3 µM,"Cn1cc(C(=O)NC(Cc2ccccc2)C(=O)C(N)=O)c(-c2cccc3c2OC(F)(F)O3)n1 (stereo not drawn) [Compound 510, N-(4-amino-3,4-dioxo-1-phenylbutan-2-yl)-3-(2,2-difluorobenzo[d][1,3]dioxol-4-yl)-1-methyl-1H-pyrazole-4-carboxamide]"
3 to 10 µM,3 to 10 µM,> 25 µM,< 10 µM,3 to 10 µM,"Cn1cc(C(=O)NC(Cc2ccccc2)C(=O)C(N)=O)c(-c2cccc(F)c2C(F)(F)F)n1 (stereo not drawn) [Compound 512, N-(4-amino-3,4-dioxo-1-phenylbutan-2-yl)-3-(3-fluoro-2-(trifluoromethyl)phenyl)-1-methyl-1H-pyrazole-4-carboxamide]"
3 to 10 µM,3 to 10 µM,> 25 µM,< 10 µM,3 to 10 µM,"Cn1cc(C(=O)NC(Cc2ccccc2)C(=O)C(N)=O)c(-c2ccccc2C(F)(F)F)n1 (stereo not drawn) [Compound 513, N-(4-amino-3,4-dioxo-1-phenylbutan-2-yl)-1-methyl-3-(2-(trifluoromethyl)phenyl)-1H-pyrazole-4-carboxamide]"
< 3 µM,< 3 µM,> 25 µM,< 10 µM,< 3 µM,"Cn1cc(C(=O)NC(Cc2ccccc2)C(=O)C(N)=O)c(-c2cccc3c2OCO3)n1 (stereo not drawn) [Compound 514, N-(4-amino-3,4-dioxo-1-phenylbutan-2-yl)-3-(benzo[d][1,3]dioxol-4-yl)-1-methyl-1H-pyrazole-4-carboxamide]"
< 3 µM,< 3 µM,> 25 µM,> 25 µM,< 3 µM,"COc1cncc(-c2nn(C)cc2C(=O)NC(Cc2ccccc2)C(=O)C(N)=O)c1 (stereo not drawn) [Compound 515, N-(4-amino-3,4-dioxo-1-phenylbutan-2-yl)-3-(5-methoxypyridin-3-yl)-1-methyl-1H-pyrazole-4-carboxamide]"
< 3 µM,< 3 µM,10 to 25 µM,10 to 25 µM,< 3 µM,"Cc1cccc(-c2nn(C)cc2C(=O)NC(Cc2ccccc2)C(=O)C(N)=O)c1F (stereo not drawn) [Compound 517, N-(4-amino-3,4-dioxo-1-phenylbutan-2-yl)-3-(2-fluoro-3-methylphenyl)-1-methyl-1H-pyrazole-4-carboxamide]"

# Source: patent US11339130B1 (Blade Therapeutics, Inc., priority 2016, dated 2022)
